# How the values were obtained:
# Details in all cases: 72 h
# [1] = test system: U2OS; assay: relative viability EC50 (midpoint between 100% and the lowest measured viability); higher = less toxic
# [2] = test system: Calu-3; assay: as above
# [3] = test system: HepG2; assay: as above
# [4] = test system: Caco-2; assay: as above
# [5] = test system: Vero E6; assay: as above
# [6] = test system: U2OS; assay: cell viability relative to DMSO; higher = less toxic
# [7] = test system: Calu-3; assay: as above
# [8] = test system: HepG2; assay: as above
# [9] = test system: Caco-2; assay: as above
# [10] = test system: Vero E6; assay: as above
# [11] = test system: U2OS; assay: drug sensitivity score (DSS) for viability; higher = more toxic; extreme values may be limits of the assay
# [12] = test system: Calu-3; assay: as above
# [13] = test system: HepG2; assay: as above
# [14] = test system: Caco-2; assay: as above
# [15] = test system: Vero E6; assay: as above
SMILES,relative viability EC50 [1] [µM],relative viability EC50 [2] [µM],relative viability EC50 [3] [µM],relative viability EC50 [4] [µM],relative viability EC50 [5] [µM],cell viability ([6]; 1 nM) [%],cell viability ([6]; 10 nM) [%],cell viability ([6]; 100 nM) [%],cell viability ([6]; 1000 nM) [%],cell viability ([6]; 10000 nM) [%],cell viability ([7]; 1 nM) [%],cell viability ([7]; 10 nM) [%],cell viability ([7]; 100 nM) [%],cell viability ([7]; 1000 nM) [%],cell viability ([7]; 10000 nM) [%],cell viability ([8]; 1 nM) [%],cell viability ([8]; 10 nM) [%],cell viability ([8]; 100 nM) [%],cell viability ([8]; 1000 nM) [%],cell viability ([8]; 10000 nM) [%],cell viability ([9]; 1 nM) [%],cell viability ([9]; 10 nM) [%],cell viability ([9]; 100 nM) [%],cell viability ([9]; 1000 nM) [%],cell viability ([9]; 10000 nM) [%],cell viability ([10]; 1 nM) [%],cell viability ([10]; 10 nM) [%],cell viability ([10]; 100 nM) [%],cell viability ([10]; 1000 nM) [%],cell viability ([10]; 10000 nM) [%],drug sensitivity score [11],drug sensitivity score [12],drug sensitivity score [13],drug sensitivity score [14],drug sensitivity score [15]
CC1(C)S[C@@H]2[C@H](NC(=O)[C@H](NC(=O)N3CCNC3=O)c3ccccc3)C(=O)N2[C@H]1C(=O)O [azlocillin],> 10,> 10,> 10,> 10,> 10,96.6,100,93.6,95,98.6,97.1,100,93,98.7,105,99.1,88.5,99.3,93.9,88,105,93,91.3,98.8,98.1,95.7,96.8,96.9,94.2,98,0,0,0,0,0
CC1=CC(=C(c2ccc(N)cc2)c2ccc(N)cc2)C=CC1=N [basic-fuchsin],1.96,1.93,1.81,1.47,1.54,97.8,97.9,95.2,86.5,12.8,92.3,102,103,87.1,19.5,102,97,104,83,7.8,88.8,92.4,106,77.6,18.6,97.2,91,94.8,82.3,29.8,7.1,6.6,7.9,7.9,6.6
O=C(c1ccc(CN2CCOCC2)cc1)N1CCN(C2CC2)CC1 [bavisant],> 10,> 10,> 10,> 10,> 10,102,97.6,103,101,99.8,86.9,95,87.1,88.9,89.2,108,104,90.6,107,94.4,104,102,97.7,89.6,98.9,109,104,104,104,99.6,0,0.5,0,0,0
O=C(Nc1ccc(C(=O)O)c(O)c1)c1ccccc1 [benzoylpas],> 10,> 10,> 10,> 10,> 10,100,102,92.8,95.9,101,94.1,106,97.9,90.3,91.1,93.5,97,97.7,98.6,107,93,97.5,91.9,97.5,92,99.8,96.8,105,97.4,103,0,0,0,0,0
CC(C)(C)CC(C)(C)c1cc(Cc2cc(C(C)(C)CC(C)(C)C)cc(-n3nc4ccccc4n3)c2O)c(O)c(-n2nc3ccccc3n2)c1 [bisoctrizole],> 10,> 10,> 10,> 10,> 10,96.8,99.7,95.5,99.5,94.4,88.8,99,90.8,105,103,98.6,108,97.5,98.6,105,98.6,99.3,97.1,98.9,87.7,103,101,96.5,98.1,101,0,0,0,0.1,0
COC(=O)N/N=C/c1c[n+]([O-])c2ccccc2[n+]1[O-] [carbadox],> 10,> 10,> 10,> 10,> 10,99.5,97.4,99.2,91.7,98.2,93.8,84.8,95.7,105,93.2,110,95.4,96.1,105,110,90.4,81.8,92.9,92.1,88.4,93.7,95.8,88.9,92.6,111,0,0,0,0,0
O=C(O)c1ccc2[nH]cc(CCCCN3CC=C(c4ccccc4)CC3)c2c1 [carmoxirole],> 10,> 10,> 10,> 10,> 10,103,99,96.9,100,101,98.7,112,92.4,96,90.8,98.4,93,86.7,100,88.3,106,107,103,91.2,105,99.2,100,93.6,102,95.8,0,0,0,0,0
CO/N=C(\C(=O)N[C@@H]1C(=O)N2C(C(=O)O)=C(CSc3nc(C)c(CC(=O)O)s3)CS[C@H]12)c1csc(N)n1 [cefodizime],> 10,> 10,> 10,> 10,> 10,96.1,95.5,99.4,97.7,98.9,98.9,93.5,89.3,86.3,96.8,88.6,105,98.8,97.3,103,89.2,89.8,105,100,89.3,93.3,95.8,89.4,99.6,106,0,0,0,0,0
"CCS(=O)(=O)N(C)[C@H]1c2cc(C#N)ccc2OC(C)(C)[C@@H]1O [chromanol-293B-(-)-[3R,4S]]",> 10,> 10,> 10,> 10,> 10,93,93.8,99.1,94.3,95.2,105,99.2,95.5,106,90.6,104,102,91.6,103,98.7,94.3,93.2,90.4,93.3,88.9,96.6,107,98.2,92.5,110,0,0,0,0,0
CC1(COc2ccc(CC3SC(=O)NC3=O)cc2)CCCCC1 (stereo not given) [ciglitazone],> 10,> 10,> 10,> 10,> 10,95.3,99.8,102,100,100,104,98.4,92.9,98,102,101,99.8,98.2,108,105,98.7,99.2,99.1,92.9,95.2,94.6,97,92.7,94.1,96.5,0,0,0,0,0
O=C(/C=C/c1cccc(F)c1)NC1CC1 [cinflumide],> 10,> 10,> 10,> 10,> 10,98.9,101,91.5,98,99.8,96.8,91.7,102,99.9,96.4,92.8,101,101,97.7,84.8,104,99.9,95.5,99.3,98.1,101,98.7,106,102,91.8,0,0,0.5,0,0
CCNC(=O)/C=C/c1cccc(Br)c1 [cinromide],> 10,> 10,> 10,> 10,> 10,101,96.7,99,96.3,98.5,102,101,106,91.5,107,105,96.5,106,97.5,96.8,99.1,96.4,105,87.2,92.4,110,83.6,97.1,101,95.6,0,0,0,0.7,0
COc1cc(/C=C/C(N)=O)cc(OC)c1OC [cintriamide],> 10,> 10,> 10,> 10,> 10,98.2,102,101,102,106,106,97.4,95.6,102,105,97.1,99.6,100,95.1,114,83,98.3,96,97.1,99.2,96.3,97.2,95.5,90.2,104,0,0,0,0,0
CC(=O)NC1CCSC1=O (stereo not given) [citiolone],> 10,> 10,> 10,> 10,> 10,95.4,95.4,101,100,105,103,98.4,93.2,101,110,102,95.8,95.1,109,110,98.8,92.6,97.6,99.7,99.6,99.9,94.7,95.6,102,106,0,0,0,0,0

# From the supplement of paper PMC13380429
